Structures are written as SMILES. Values after ≈ are worked out from the molar mass of the structure shown.

In one series the test system is Morganella morganii. Kind of series: Antimicrobial activity against Morganella morganii ATCC 25830 assessed as inhibition of microbial growth incubated for 18 hrs by micro-broth dilution method. The format is functional.
The test system of a further series is Haemophilus influenzae. Kind of series: Antibacterial activity against Haemophilus influenzae ATCC 49247 assessed as inhibition of microbial growth incubated for 18 hrs by micro-broth dilution method. The format is functional.
Series [1] addresses T1, UDP-3-O-acyl-N-acetylglucosamine deacetylase (Escherichia coli K-12, UniProt P0A725).
T1 sequence (P0A725 whole entry): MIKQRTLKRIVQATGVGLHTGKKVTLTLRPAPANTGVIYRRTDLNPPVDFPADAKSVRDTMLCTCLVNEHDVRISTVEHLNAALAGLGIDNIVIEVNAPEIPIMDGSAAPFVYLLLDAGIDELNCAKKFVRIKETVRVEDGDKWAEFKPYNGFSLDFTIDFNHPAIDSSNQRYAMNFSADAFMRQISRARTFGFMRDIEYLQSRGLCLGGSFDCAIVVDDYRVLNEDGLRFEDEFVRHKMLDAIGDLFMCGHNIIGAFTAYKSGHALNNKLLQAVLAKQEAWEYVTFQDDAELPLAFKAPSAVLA
Kind of series: Inhibition of Escherichia coli LpxC.

For a further series, the system named is Serratia marcescens. In words: Antibacterial activity against Serratia marcescens assessed as inhibition of bacterial growth by Muller-Hinton broth based serial dilution method. The format is functional.
The target in series [2] is T1, UDP-3-O-acyl-N-acetylglucosamine deacetylase. Kind of series: Binding affinity to Escherichia coli LpxC assessed as inhibition constant.
Series [3] relates to Escherichia coli. In words: Antibacterial activity against Escherichia coli CMCC 44568 assessed as reduction in bacterial growth incubated for 22 hrs byMueller-Hinton Broth assay. The format is functional.
For series [4], the system named is Pseudomonas aeruginosa. In words: Antibacterial activity against Pseudomonas aeruginosa CMCC 10104 assessed as reduction in bacterial growth incubated for 22 hrs byMueller-Hinton Broth assay. The format is functional.
The subject of series [5] is Klebsiella pneumoniae. In words: Antibacterial activity against Klebsiella pneumoniae ATCC 43816 assessed as reduction in microbial growth incubated for 16 to 18 hrs by CLSI protocol based Muller Hinton broth assay. The format is functional. The following applies: time 16-18 hrs.
The next series has as its system Yersinia enterocolitica. Kind of series: Antibacterial activity against Yersinia enterocolitica assessed as inhibition of bacterial growth incubated for 16 to 20 hrs by CLSI protocol based Muller Hinton broth assay. The settings on record: time 16-20 hrs. The format is functional.
The subject of series [6] is Pseudomonas aeruginosa. Kind of series: Antibacterial activity against Pseudomonas aeruginosa ATCC 27853 assessed as reduction in bacterial growth by CLSI protocol based Muller Hinton broth assay. The format is functional.
Series [7] has as its system Pseudomonas aeruginosa. Kind of series: Antibacterial activity against Pseudomonas aeruginosa assessed as reduction in bacterial growth. The format is functional.
Series [8] concerns Escherichia coli. Kind of series: Antibacterial activity against Escherichia coli ATCC 25922 assessed as reduction in bacterial growth. The format is functional.
For series [9], the target named is T2, UDP-3-O-acyl-N-acetylglucosamine deacetylase (Pseudomonas aeruginosa (strain ATCC 15692 / PAO1 / 1C / PRS 101 / LMG12228), UniProt P47205).
T2 sequence (P47205 whole entry): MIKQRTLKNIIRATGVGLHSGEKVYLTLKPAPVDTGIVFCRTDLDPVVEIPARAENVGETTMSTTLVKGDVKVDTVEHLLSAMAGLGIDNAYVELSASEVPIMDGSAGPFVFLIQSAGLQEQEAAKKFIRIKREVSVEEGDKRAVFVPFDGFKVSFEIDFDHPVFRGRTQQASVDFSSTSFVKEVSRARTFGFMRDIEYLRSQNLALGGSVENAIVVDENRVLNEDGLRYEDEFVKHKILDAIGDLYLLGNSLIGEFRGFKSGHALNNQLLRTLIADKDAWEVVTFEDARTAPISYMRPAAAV
Kind of series: Binding affinity to Pseudomonas aeruginosa LpxC assessed as inhibition constant.

Series [10] in a line: Toxicity in CD-1 mouse assessed as effective dose. The settings on record: in vivo.
Series [11] has as its system Escherichia coli. In words: Antimicrobial activity against Escherichia coli ATCC 25922 assessed as reduction in bacterial growth incubated for 18 hrs by micro-dilution method. The format is functional. Background: Dilution methods test growth across graded concentrations, often in twofold steps.
The test system of series [12] is Klebsiella pneumoniae. In words: Antibacterial activity against Klebsiella pneumoniae ATCC 700603 assessed as inhibition of bacterial growth incubated for 18 hrs by broth micro-dilution method. The format is functional.
In series [13] the target is T2, UDP-3-O-acyl-N-acetylglucosamine deacetylase. In words: Inhibition of Pseudomonas aeruginosa LpxC.
Series [14] concerns Pseudomonas aeruginosa. In words: Antibacterial activity against Pseudomonas aeruginosa PAO1 assessed as reduction in bacterial growth incubated for 24 hrs By CLSI based micro-dilution method. The format is functional.
The subject of series [15] is Klebsiella pneumoniae. Kind of series: Antibacterial activity against Klebsiella pneumoniae ATCC 700603. The format is functional.
Series [16] relates to Pseudomonas aeruginosa. Kind of series: Antibacterial activity against Pseudomonas aeruginosa PAO1. The format is functional.
Series [17] has as its system Escherichia coli. In words: Antibacterial activity against Escherichia coli ATCC 25922. The format is functional.
In series [18] the test system is Pseudomonas aeruginosa. Kind of series: Antibacterial activity against Pseudomonas aeruginosa assessed as bacterial growth inhibition. The format is functional.
For series [19], the system named is Escherichia coli. Kind of series: Antibacterial activity against Escherichia coli assessed as bacterial growth inhibition. The format is functional.
The subject of another series is Salmonella typhimurium. Kind of series: Antimicrobial activity against Salmonella enterica subsp. enterica serovar Typhimurium ATCC 14028 assessed as inhibition of bacterial growth measured for 24 hrs by standard broth microdilution method. The format is functional.
For series [20], the system named is Escherichia coli. In words: Antibacterial activity against Escherichia coli ATCC 25922 incubated for 24 hrs by CLSI based micro-dilution method. The format is functional.
The test system of series [21] is Pseudomonas aeruginosa. In words: Antibacterial activity against Pseudomonas aeruginosa ATCC 27853 assessed as reduction in bacterial growth incubated for 18 hrs by broth micro-dilution method. The format is functional.
Series [22] concerns Klebsiella pneumoniae. In words: Antibacterial activity against Klebsiella pneumoniae A651 assessed as reduction in bacterial growth by CLSI protocol based Mueller Hinton broth assay. The format is functional.
For series [23], the system named is Pseudomonas aeruginosa. In words: Antibacterial activity against Pseudomonas aeruginosa ATCC 27853 assessed as reduction in bacterial growth by CLSI protocol based Mueller Hinton broth assay. The format is functional.
The test system of series [24] is Escherichia coli. In words: Antibacterial activity against Escherichia coli ATCC 25922 assessed as reduction in bacterial growth by CLSI protocol based Mueller Hinton broth assay. The format is functional.
A short description of series [25]: Inhibition of Aquifex aeolicus LpxC.
The subject of series [26] is Escherichia coli. Kind of series: Anti-microbial activity against Escherichia coli ATCC 25922 assessed as reduction in bacterial growth incubated for 24 hrs By CLSI based micro-dilution method. The format is functional.
For series [27], the system named is Escherichia coli. In words: Antibacterial activity against Escherichia coli ATCC 25922 assessed as reduction in bacterial growth incubated for 18 hrs by broth micro-dilution method. The format is functional.

For `O=C(NO)[C@@H](Cc1ccc2ccccc2c1)NS(=O)(=O)c1ccc2ccccc2c1`, the MIC in the series on Morganella morganii worked out at 1 µg/mL; with Haemophilus influenzae it was 1 µg/mL; in the series with Serratia marcescens it was 1 µg/mL (≈ 2.38 µM). The same compound yielded an IC50 in series [1] of 160 nM.
Regarding `CNC(=O)c1ccc(-c2ccc(NCc3oc(S(C)(=O)=O)cc(=O)c3O)cc2)cc1`, in series [1], inhibition was half-maximal at 100 nM (IC50).
On the same count and under the same terms, in the case of `O=C(CO/N=C/c1ccc(O)c(O)c1O)NC[C@H]1O[C@@H](n2ccc(=O)[nH]c2=O)[C@@H](O)[C@H]1O` it was 27000 nM.
In the case of `O=C(NO)[C@H]1O[C@@H](c2ccc(C#CC#Cc3ccccc3)cc2)[C@@H](O)[C@H]1O`, the Ki in series [2] stood at 4400 nM.
Turning to `N=C(N)N/N=C/c1ccc(C#CC#Cc2ccccc2Cl)cc1`, the MIC in the series with Escherichia coli [3] was 8 µg/mL (≈ 24.9 µM); with Pseudomonas aeruginosa [4] it was 4 µg/mL (≈ 12.5 µM).
Regarding `CC(C)(N)[C@H](NC(=O)c1ccc(C#CC#C[C@@H]2C[C@H]2CO)cc1)C(=O)NO` [ACHN-975], the MIC was 0.5 µg/mL in the series with Klebsiella pneumoniae [5]; 2 µg/mL (≈ 5.41 µM) with Yersinia enterocolitica; 0.25 µg/mL (≈ 0.677 µM) in the series with Pseudomonas aeruginosa [6]; at most 1 µg/mL in the series with Pseudomonas aeruginosa [7]; 0.125 µg/mL (≈ 0.338 µM) in the series with Escherichia coli [8].
`C[C@@](O)(C(F)F)[C@H](NC(=O)c1ccc(C#CC#CC2CC2)cc1)C(=O)NO`: the Ki in series [9] was 0.0089 nM. In addition, the ED50 in series [10] was determined as 7.2 mg/kg/day. Besides, the figures for the MIC90 in the series with Escherichia coli [11] and in the series on Klebsiella pneumoniae [12] were 0.5 µg/mL (≈ 1.33 µM) and 0.125 µg/mL (≈ 0.332 µM), respectively.
As for `O=C(NO)C1(NCc2ccc(-c3ccc(Cl)cc3F)c(F)c2)CCS(=O)(=O)CC1`, half-maximal inhibition in series [13] (IC50) was put at 0.2 nM. In addition, the MIC in the series with Pseudomonas aeruginosa [14] worked out at 0.25 µg/mL (≈ 0.562 µM).
On to `N=C(N)N/N=C/c1ccc(C#CC#Cc2ccc(Cl)cc2)cc1`, for which the MIC is 2 µg/mL (≈ 6.23 µM) in the series with Escherichia coli [3] and 1 µg/mL (≈ 3.12 µM) with Pseudomonas aeruginosa [4].
For the compound `COC[C@@H]1C[C@H]1C#CC#Cc1ccc(C(=O)N[C@H](C(=O)NO)C(C)(C)N)cc1`, the MIC is 0.5 µg/mL (≈ 1.3 µM) against Klebsiella pneumoniae [15], 0.5 µg/mL (≈ 1.3 µM) with Pseudomonas aeruginosa [16] and 0.12 µg/mL (≈ 0.313 µM) in the series with Escherichia coli [17].
In the case of `CC(O)C(CP(=O)(O)O)NC(=O)c1ccc(C#Cc2ccc(CN3CCOCC3)cc2)cc1` (stereo not drawn), the MIC in the series with Pseudomonas aeruginosa [18] is 2.06 µg/mL (≈ 4.36 µM); with Escherichia coli [19], 0.28 µg/mL (≈ 0.593 µM).
Turning to `C[C@@H](O)[C@H](NC(=O)c1ccc(C#CC#Cc2ccccc2)cc1)C(=O)NO`, the MIC in the series on Salmonella typhimurium was 0.024 µg/mL (≈ 0.0662 µM); against Escherichia coli [20] it was 0.05 µg/mL (≈ 0.138 µM); in the series with Pseudomonas aeruginosa [21], 0.74 µg/mL (≈ 2.04 µM).
As to `C[C@]1(CO)C[C@@H]1C#CC#Cc1ccc2c(=O)n(CC[C@](C)(C(=O)NO)S(C)(=O)=O)cnc2c1`, the MIC in the series with Klebsiella pneumoniae [22] was 0.25 µg/mL (≈ 0.53 µM); in the series on Pseudomonas aeruginosa [23], 1 µg/mL (≈ 2.12 µM); in the series with Escherichia coli [24], 0.063 µg/mL (≈ 0.134 µM).
Regarding `CCCCCC(=O)O[C@@H]1[C@@H](CP(C)(=O)O)CO[C@H](CO)[C@H]1O`, the IC50 in series [25] came to 192000 nM; in series [1] it was 115000 nM.
`CS(=O)(=O)c1cc(=O)c(O)c(CNc2ccc(-c3ccc(N4CCOCC4)cc3)cc2)o1` yielded an IC50 in series [1] of 100 nM.
For the compound `O=C(NO)[C@@H](OCc1ccc(C#Cc2ccc(CN3CCOCC3)cc2)cc1)[C@@H](O)COCc1ccccc1`, the MIC in the series with Escherichia coli [26] worked out at 0.125 µg/mL (≈ 0.236 µM).
Turning to `O=C(NO)[C@H]1O[C@@H](c2ccc(C#Cc3ccc(CN4CCOCC4)cc3)cc2)C[C@H]1O`, the Ki in series [2] stood at 3500 nM. Further, the MIC with Escherichia coli [26] amounted to 2 µg/mL (≈ 4.73 µM).
Take `CC(O)C#CC#Cc1ccc(C2=NO[C@@H](C[C@](C)(C(=O)NO)S(C)(=O)=O)C2)cc1` (stereo partly drawn): the MIC in the series with Pseudomonas aeruginosa [14] was 0.06 µg/mL (≈ 0.143 µM).
As to `O=C(NO)[C@@H](Cc1ccc2ccccc2c1)NS(=O)(=O)c1ccc2cc(Br)ccc2c1`, the figures for the MIC with Morganella morganii, in the series on Haemophilus influenzae and with Serratia marcescens were 1 µg/mL, 1 µg/mL and 1 µg/mL (≈ 2 µM), respectively. Further, the IC50 in [1] amounted to 400 nM.
As to `CCCc1cc(C2=NC(C(=O)NO)CO2)ccc1OC` (stereo not drawn), the MIC in the series on Escherichia coli [27] amounted to 1 µg/mL (≈ 3.59 µM).
On to `C[C@@](CCN1Cc2cc(C#Cc3ccc([C@H]4C[C@@H]4CO)cc3)cn2C1=O)(C(=O)NO)S(C)(=O)=O`, for which the MIC in the series with Klebsiella pneumoniae [22] was 0.125 µg/mL (≈ 0.257 µM); in the series with Pseudomonas aeruginosa [23] it was 0.5 µg/mL (≈ 1.03 µM); in the series on Escherichia coli [24], 0.031 µg/mL (≈ 0.0638 µM).

For orientation: IC50 means the midpoint of a concentration-inhibition curve. Higher therefore signals a need for much substance. The term Ki denotes a dissociation constant, usually derived from enzyme kinetics or from competition with a known ligand. By ED50 is commonly meant the dose that gives a 50% effect, or the effect in half of the subjects. In general, MIC90 refers to the lowest concentration that inhibits either 90% of growth or 90% of the strains tested, depending on the study.
